The values below come from patent publication US11878970B2, “Allosteric chromenone inhibitors of phosphoinositide 3-kinase (PI3K) for the treatment of disease” (Petra Pharma Corporation, priority 2021, dated 2024).

A value given as a limit tells only on which side of the number the result lay.

As a reminder, the IC50 is the concentration at which inhibition is half-maximal. Read a low IC50 as greater potency in that assay.

Assay [1] concerns the target T1, PI3K-α (PIK3CA) wild-type (WT), p110α/p85α complex (Homo sapiens, UniProt P42336).
T1 construct: Recombinant, catalytically active human full length PIK3KA Wild-type and H1047R mutant; 6×His (N); purchased EMD Millipore Sigma 14-602M
Description: PI3K-alpha kinase (PIK3CA) biochemical activity, ADP-Glo, wild-type. Particulars: Soy PI lipid substrate. The procedure, abridged:
(§1)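 ADP formation measured by ADP-Glo luminescence after reaction at 27 °C to about 10% ATP turnover, using 20 uM ATP, 50 uM PIP2diC8 or soy PI lipid, HEPES pH 7.4 with MgCl2. Enzyme (1-5 nM WT or H1047R p110α/p85α) and compound preincubated 1 h first; 10-point 1:3 curves fitted four-parameter for IC50.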

Assay [2] concerns the target T2, PI3K-α (PIK3CA) H1047R mutant, p110α/p85α complex (Homo sapiens, UniProt P42336, H1047R).
T2 construct: Recombinant, catalytically active human full length PIK3KA Wild-type and H1047R mutant; 6×His (N); purchased EMD Millipore Sigma 14-792M
As to the kind of experiment: PI3K-alpha kinase (PIK3CA) biochemical activity, ADP-Glo, H1047R mutant. Particulars: Soy PI lipid substrate. The procedure, abridged: as §1
For orientation: ADP-Glo first removes unused ATP, then detects ADP through luciferase.

T2 sequence (P42336 whole entry H1047R): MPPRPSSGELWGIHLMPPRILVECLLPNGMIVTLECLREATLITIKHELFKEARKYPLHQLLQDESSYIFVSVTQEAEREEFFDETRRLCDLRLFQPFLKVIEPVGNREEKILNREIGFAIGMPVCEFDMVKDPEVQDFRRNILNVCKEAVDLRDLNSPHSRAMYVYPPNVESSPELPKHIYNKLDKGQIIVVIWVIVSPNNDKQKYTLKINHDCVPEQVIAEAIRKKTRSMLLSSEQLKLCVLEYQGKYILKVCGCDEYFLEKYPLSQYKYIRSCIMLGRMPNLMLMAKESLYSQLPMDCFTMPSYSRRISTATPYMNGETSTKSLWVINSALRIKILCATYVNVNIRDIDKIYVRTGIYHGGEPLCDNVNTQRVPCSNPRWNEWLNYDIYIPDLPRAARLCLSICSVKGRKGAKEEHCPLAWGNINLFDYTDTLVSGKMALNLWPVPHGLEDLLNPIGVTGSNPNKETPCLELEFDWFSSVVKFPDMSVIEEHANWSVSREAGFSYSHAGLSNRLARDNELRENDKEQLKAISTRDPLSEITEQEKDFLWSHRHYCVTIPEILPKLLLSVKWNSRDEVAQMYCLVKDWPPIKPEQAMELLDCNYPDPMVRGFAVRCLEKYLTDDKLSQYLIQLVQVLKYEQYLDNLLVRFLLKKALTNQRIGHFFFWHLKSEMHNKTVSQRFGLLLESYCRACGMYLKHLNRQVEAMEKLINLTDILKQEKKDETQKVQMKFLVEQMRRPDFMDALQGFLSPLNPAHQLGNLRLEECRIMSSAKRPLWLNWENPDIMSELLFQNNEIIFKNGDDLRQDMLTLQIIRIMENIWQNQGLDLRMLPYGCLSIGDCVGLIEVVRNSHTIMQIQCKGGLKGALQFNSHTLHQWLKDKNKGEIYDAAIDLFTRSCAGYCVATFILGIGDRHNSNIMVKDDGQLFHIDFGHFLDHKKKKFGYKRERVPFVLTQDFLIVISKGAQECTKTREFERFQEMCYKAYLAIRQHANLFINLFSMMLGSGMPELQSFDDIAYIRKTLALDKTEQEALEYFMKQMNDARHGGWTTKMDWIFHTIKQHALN
T2 sequence (P27986 whole entry partner): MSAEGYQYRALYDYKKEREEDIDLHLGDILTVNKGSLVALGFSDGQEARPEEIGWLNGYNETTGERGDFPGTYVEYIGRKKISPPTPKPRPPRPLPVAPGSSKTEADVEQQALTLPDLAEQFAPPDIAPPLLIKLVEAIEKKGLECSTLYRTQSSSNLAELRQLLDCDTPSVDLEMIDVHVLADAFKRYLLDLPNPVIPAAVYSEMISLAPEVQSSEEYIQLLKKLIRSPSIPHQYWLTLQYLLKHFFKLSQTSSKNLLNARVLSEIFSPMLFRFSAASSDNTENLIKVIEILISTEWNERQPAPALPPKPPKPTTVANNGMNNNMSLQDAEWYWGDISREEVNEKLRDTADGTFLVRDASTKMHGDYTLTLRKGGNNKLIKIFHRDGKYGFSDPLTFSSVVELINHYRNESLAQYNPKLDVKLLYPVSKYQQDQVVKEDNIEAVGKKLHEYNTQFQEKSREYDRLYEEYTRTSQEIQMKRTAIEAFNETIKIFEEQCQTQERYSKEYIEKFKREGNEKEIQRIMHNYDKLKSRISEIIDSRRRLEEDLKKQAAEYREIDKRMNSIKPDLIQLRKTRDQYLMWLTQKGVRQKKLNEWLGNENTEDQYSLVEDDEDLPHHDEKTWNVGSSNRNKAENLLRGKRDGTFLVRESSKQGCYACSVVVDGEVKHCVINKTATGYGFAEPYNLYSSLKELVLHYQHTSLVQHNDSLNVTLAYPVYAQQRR

As to `Cc1cc(C(C)Nc2ccc(Cl)nc2C(=O)O)c2oc(-c3ccc4nn(C)cc4c3)c(C)c(=O)c2c1` (single isomer, unassigned) [Example 181, 6-Chloro-3-[1-[3,6-dimethyl-2-(2-methylindazol-5-yl)-4-oxo-chromen-8-yl]ethylamino]pyridine-2-carboxylic acid], the IC50 in assay [1] and in assay [2] was less than 500 nM in each case.
As for `Cc1cc(C(C)Nc2ccccc2C(=O)O)c2oc(-c3ccc4c(cnn4C)n3)c(C)c(=O)c2c1` (single isomer, unassigned) [Example 131, 2-[1-[3,6-Dimethyl-2-(1-methylpyrazolo[4,3-b]pyridin-5-yl)-4-oxo-chromen-8-yl]ethylamino]benzoic acid], the concentration for half-maximal inhibition (IC50) in assay [1] was 1000 to 5000 nM; in assay [2], less than 500 nM.
The matching figures for `Cc1cc(C(C)Nc2ccccc2C(=O)O)c2oc(-c3cccn4ccnc34)cc(=O)c2c1` (single isomer, unassigned) [Example 127, 2-[1-(2-Imidazo[1,2-a]pyridin-8-yl-6-methyl-4-oxo-chromen-8-yl)ethylamino]benzoic acid]: 5000 to 10000 nM and 500 to 1000 nM.
The matching figures for `Cc1cc(C(C)Nc2ccccc2C(=O)O)c2oc(-c3nn(C)c4ccccc34)cc(=O)c2c1` (single isomer, unassigned) [Example 23, 2-[1-[6-Methyl-2-(1-methylindazol-3-yl)-4-oxo-chromen-8-yl]ethylamino]benzoic acid]: 500 to 1000 nM and less than 500 nM.
With `Cc1cc(C(C)Nc2ccccc2C(=O)O)c2oc(-c3ccc4nnc(C(F)(F)F)n4c3)cc(=O)c2c1` (single isomer, unassigned) [Example 162, 2-[1-[6-Methyl-4-oxo-2-[3-(trifluoromethyl)-[1,2,4]triazolo[4,3-a]pyridin-6-yl]chromen-8-yl]ethylamino]benzoic acid], the IC50 was greater than 10000 nM in assay [1] and 500 to 1000 nM in assay [2].
The matching figures for `Cc1cc(C(C)Nc2ccccc2C(=O)O)c2oc(-c3ccc4c(cnn4CC4COC4)c3)cc(=O)c2c1` (single isomer, unassigned) [Example 138, 2-[1-[6-Methyl-2-[1-(oxetan-3-ylmethyl)indazol-5-yl]-4-oxo-chromen-8-yl]ethylamino]benzoic acid]: greater than 10000 nM and 500 to 1000 nM.
For `Cc1cc(C(C)Nc2ccccc2C(=O)O)c2oc(-c3ccc4nn(CC(C)(C)O)cc4c3)cc(=O)c2c1` (single isomer, unassigned) [Example 122, 2-[1-[2-[2-(2-Hydroxy-2-methyl-propyl)indazol-5-yl]-6-methyl-4-oxo-chromen-8-yl]ethylamino]benzoic acid], the results for the IC50 in assay [1] and in assay [2] were greater than 10000 nM and 500 to 1000 nM, respectively.
In the same order, the values of `Cc1cc(C(C)Nc2ccccc2C(=O)O)c2oc(-c3ccn4c(-c5ncco5)c(C)nc4c3)cc(=O)c2c1` (single isomer, unassigned) [Example 133, 2-[1-[6-Methyl-2-(2-methyl-3-oxazol-2-yl-imidazo[1,2-a]pyridin-7-yl)-4-oxo-chromen-8-yl]ethylamino]benzoic acid] are greater than 10000 nM and greater than 10000 nM.
In the same order, the values of `Cc1cc(C(C)Nc2ccccc2C(=O)O)c2oc(-c3ccc4nccn4n3)cc(=O)c2c1` (stereo not shown) [Example 15, 2-[1-(2-Imidazo[1,2-b]pyridazin-6-yl-6-methyl-4-oxo-chromen-8-yl)ethylamino]benzoic acid] are 1000 to 5000 nM and less than 500 nM.
With `Cc1cc(C(C)Nc2ccccc2C(=O)O)c2oc(-c3ccc4c(n3)N(C)C(=O)C4)cc(=O)c2c1` (single isomer, unassigned) [Example 141, 2-[1-[6-Methyl-2-(1-methyl-2-oxo-3H-pyrrolo[2,3-b]pyridin-6-yl)-4-oxo-chromen-8-yl]ethylamino]benzoic acid], the IC50 in assay [1] was 1000 to 5000 nM; in assay [2] it was less than 500 nM.
For the compound `Cc1cc(C(C)Nc2ccccc2C(=O)O)c2oc(-c3cn(C)c4ccccc34)cc(=O)c2c1` (single isomer, unassigned) [Example 143, 2-[1-[6-Methyl-2-(1-methylindol-3-yl)-4-oxo-chromen-8-yl]ethylamino]benzoic acid], the IC50 in assay [1] was 500 to 1000 nM; in assay [2], less than 500 nM.
For the compound `Cc1cc(C(C)Nc2ccccc2C(=O)O)c2oc(-n3ncc4cc(F)ccc43)cc(=O)c2c1` (single isomer, unassigned) [Example 89, 2-[1-[2-(5-Fluoroindazol-1-yl)-6-methyl-4-oxo-chromen-8-yl]ethylamino]benzoic acid], the IC50 in assay [1] was 1000 to 5000 nM; in assay [2], less than 500 nM.
Turning to `Cc1cc(C(C)Nc2ccccc2C(=O)O)c2oc(-c3cccc4c3cnn4C)cc(=O)c2c1` (single isomer, unassigned) [Example 136, 2-[1-[6-Methyl-2-(1-methylindazol-4-yl)-4-oxo-chromen-8-yl]ethylamino]benzoic acid], the values for the IC50 in assay [1] and in assay [2] were 1000 to 5000 nM and less than 500 nM, respectively.
Take `Cc1cc(C(C)Nc2ccc(C)nc2C(=O)O)c2oc(-c3ccc4nn(C)cc4c3)cc(=O)c2c1` (single isomer, unassigned) [Example 180, 6-Methyl-3-[1-[6-methyl-2-(2-methylindazol-5-yl)-4-oxo-chromen-8-yl]ethylamino]pyridine-2-carboxylic acid]: the results for the IC50 in assay [1] and in assay [2] were 1000 to 5000 nM and less than 500 nM, respectively.
In the same order, the values of `CC(Nc1cccnc1C(=O)O)c1cc(C(F)(F)F)cc2c(=O)cc(-c3cc4ccccc4[nH]3)oc12` (stereo not shown) [Example 185, 3-[1-[2-(1H-Indol-2-yl)-4-oxo-6-(trifluoromethyl)chromen-8-yl]ethylamino]pyridine-2-carboxylic acid] are greater than 10000 nM and greater than 10000 nM.
Take `Cc1cc(C(C)Nc2ccccc2C(=O)O)c2oc(-c3ccc4cc[nH]c4c3)cc(=O)c2c1` (single isomer, unassigned) [Example 21, 2-[1-[2-(1H-Indol-6-yl)-6-methyl-4-oxo-chromen-8-yl]ethylamino]benzoic acid]: the IC50 is 500 to 1000 nM in assay [1] and less than 500 nM in assay [2].
On to `Cc1cc(C(C)Nc2ccccc2C(=O)O)c2oc(-c3ccc4cc[nH]c4n3)cc(=O)c2c1` (stereo not shown) [Example 14, 2-[1-[6-Methyl-4-oxo-2-(1H-pyrrolo[2,3-b]pyridin-6-yl)chromen-8-yl]ethylamino]benzoic acid], for which the results for the IC50 in assay [1] and in assay [2] were 1000 to 5000 nM and less than 500 nM, respectively.
As for `Cc1cc(C(C)Nc2ccccc2C(=O)O)c2oc(-c3ccc4nc(C)cn4c3)cc(=O)c2c1` (single isomer, unassigned) [Example 38, 2-[1-[6-Methyl-2-(2-methylimidazo[1,2-a]pyridin-6-yl)-4-oxo-chromen-8-yl]ethylamino]benzoic acid], the 50% inhibitory concentration (IC50) was 1000 to 5000 nM in assay [1] and less than 500 nM in assay [2].
The matching figures for `Cc1cc(C(C)Nc2ccccc2C(=O)O)c2oc(-c3nccc4cnn(C)c34)cc(=O)c2c1` (single isomer, unassigned) [Example 96, 2-[1-[6-Methyl-2-(1-methylpyrazolo[3,4-c]pyridin-7-yl)-4-oxo-chromen-8-yl]ethylamino]benzoic acid]: 5000 to 10000 nM and 1000 to 5000 nM.
On to `COc1ccc2nc(-c3cc(=O)c4cc(C)cc(C(C)Nc5ccccc5C(=O)O)c4o3)cn2c1` (single isomer, unassigned) [Example 2, 2-[1-[2-(6-Methoxyimidazo[1,2-a]pyridin-2-yl)-6-methyl-4-oxo-chromen-8-yl]ethylamino]benzoic acid], for which the results for the IC50 in assay [1] and in assay [2] were 1000 to 5000 nM and 500 to 1000 nM, respectively.
Regarding `Cc1ccc2c(cnn2-c2cc(=O)c3cc(C)cc(C(C)Nc4ccccc4C(=O)O)c3o2)c1` (single isomer, unassigned) [Example 87, 2-[1-[6-Methyl-2-(5-methylindazol-1-yl)-4-oxo-chromen-8-yl]ethylamino]benzoic acid], the IC50 in assay [1] was 1000 to 5000 nM; in assay [2], less than 500 nM.
Regarding `Cc1cc(C(C)Nc2ccccc2C(=O)O)c2oc(-c3cc4ncccc4[nH]3)cc(=O)c2c1` (single isomer, unassigned) [Example 147, 2-[1-[6-Methyl-4-oxo-2-(1H-pyrrolo[3,2-b]pyridin-2-yl)chromen-8-yl]ethylamino]benzoic acid], the figures for the IC50 in assay [1] and in assay [2] were 1000 to 5000 nM and less than 500 nM, respectively.
In the same order, the values of `Cc1cc(C(C)Nc2ccccc2C(=O)O)c2oc(-c3ccc4ccnn4c3)c(C)c(=O)c2c1` (single isomer, unassigned) [Example 157, 2-[1-(3,6-Dimethyl-4-oxo-2-pyrazolo[1,5-a]pyridin-6-yl-chromen-8-yl)ethylamino]benzoic acid] are 1000 to 5000 nM and less than 500 nM.
`Cc1cc(C(C)Nc2ccccc2C(=O)O)c2oc(-c3ccc4c(cnn4C)n3)cc(=O)c2c1` (single isomer, unassigned) [Example 53, 2-[1-[6-Methyl-2-(1-methylpyrazolo[4,3-b]pyridin-5-yl)-4-oxo-chromen-8-yl]ethylamino]benzoic acid]: the IC50 is 1000 to 5000 nM in assay [1] and less than 500 nM in assay [2].
In the same order, the values of `Cc1cc(C(C)Nc2ccccc2C(=O)O)c2oc(-c3ccc4c(c3)ncn4C)cc(=O)c2c1` (single isomer, unassigned) [Example 166, 2-[1-[6-Methyl-2-(1-methylbenzimidazol-5-yl)-4-oxo-chromen-8-yl]ethylamino]benzoic acid] are 5000 to 10000 nM and less than 500 nM.
The matching figures for `Cc1cc(C(C)Nc2ccc(Cl)c(F)c2C(=O)O)c2oc(-c3ccc4nn(C)cc4c3)cc(=O)c2c1` (single isomer, unassigned) [Example 184, 3-Chloro-2-fluoro-6-[1-[6-methyl-2-(2-methylindazol-5-yl)-4-oxo-chromen-8-yl]ethylamino]benzoic acid]: 500 to 1000 nM and less than 500 nM.
